Measured values taken from patent publication US20240254143A1, “OREXIN RECEPTOR AGONISTS AND USES THEREOF” (JAZZ PHARMACEUTICALS IRELAND LIMITED, priority 2021, published 2024).

Target: T1, human recombinant OX2 (hOX2) receptor (Homo sapiens, UniProt O43614)
T1 construct: host or cells: CHO cells
T1 sequence (O43614 1-444): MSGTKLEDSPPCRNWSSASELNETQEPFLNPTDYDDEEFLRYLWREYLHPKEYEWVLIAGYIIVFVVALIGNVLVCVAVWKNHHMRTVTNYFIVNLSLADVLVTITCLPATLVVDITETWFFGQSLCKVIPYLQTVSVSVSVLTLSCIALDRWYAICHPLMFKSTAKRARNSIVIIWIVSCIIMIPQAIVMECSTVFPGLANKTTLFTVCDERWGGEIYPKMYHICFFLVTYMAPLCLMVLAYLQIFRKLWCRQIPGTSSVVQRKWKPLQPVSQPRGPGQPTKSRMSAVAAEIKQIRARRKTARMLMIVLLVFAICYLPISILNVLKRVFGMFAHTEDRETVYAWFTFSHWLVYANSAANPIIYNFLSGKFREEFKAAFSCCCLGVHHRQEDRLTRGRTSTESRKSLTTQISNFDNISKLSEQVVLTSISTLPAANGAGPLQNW
Assay: IP-1 accumulation assay (IP-One HTRF) in hOX2-CHO cells
Type: cell-based
Conditions: 60 min at 37° C., mean of at least two independent experiments, read-out: EC50_OX2R Category
Protocol: Example 94: IP-1 Accumulation Assay
The accumulation of Inositol-1 Monophosphate (IP-1) was measured using IP-One HTRF® Terbium cryptate based assay (Cisbio) in human recombinant OX1 (hOX1) and at OX2 (hOX2) receptors expressed in CHO cells (DiscoverX) according to the manufacturer's instructions for cells tested in suspension.
hOX1-CHO and hOX2-CHO cells were seeded into white 384-well plates at a density of 20,000 cells/well in Hank's Balanced Salt Solution (HBSS) containing 20 mM HEPES pH 7.4, 50 mM, LiCl and 0.1% and Bovine Serum Albumin (BSA).
Compounds of the present disclosure were tested in a 11 points concentration response curve (CRC) serially diluted in neat DMSO at 200 fold concentrations and added by Echo acoustic liquid handling (Labcyte) to the cells (0.5% DMSO final in the assay). After 60 min of incubation at 37° C. detection reagents, IP1-d2 tracer and anti-IP1-cryptate were diluted in lysis buffer according to the manufacturer's descriptions and added to the cells.
Following 60 mi incubation at room temperature, time-resolved fluorescence (HTRF) was measured at 615 nm and 665 nm by Envision Multilabel reader (Perkin Elmer) and the HTRF ratio (A665/A615×10^4) was calculated.
The IP-1 accumulation response was expressed as percentage of the maximal OX-A response.
Curve fitting and EC50 estimations were carried out using a four-parameter logistic model using XLfit Software. Mean data of EC50 are calculated from at least two independent experiments performed in duplicates.

| EC50 [µM] | SMILES |
| --- | --- |
| 0.1 to 1 | O=C1N[C@]2(CCO1)[C@H](Cc1cccc(-c3cc(F)cc(F)c3)c1F)N(C(=O)[C@H]1C[C@@H](F)C1)CC2(F)F (relative stereo) [Example 79, rel-(1S,5R)-4,4-difluoro-2-[(CIS)-3-fluorocyclobutanecarbonyl]-1-({2,3′,5′-trifluoro-[1,1′-biphenyl]-3-yl}methyl)-8-oxa-2,6-diazaspiro[4.5]decan-7-one] |
| 1 to 10 | CCNC(=O)N1CCC[C@]2(COCC(=O)N2)[C@H]1CO[C@H]1CC[C@@H](c2ccccc2)CC1 (single isomer, unassigned) [Example 2] |
| < 0.1 | CCNC(=O)N1CCC[C@@]2(COCC(=O)N2)[C@@H]1CO[C@H]1CC[C@@H](c2ccccc2)CC1 (single isomer, unassigned) [Example 3] |
| > 10 | COC(=O)N1CCC[C@]2(COCC(=O)N2)[C@H]1CO[C@H]1CC[C@@H](c2ccccc2)CC1 (single isomer, unassigned) [Example 5] |
| 0.1 to 1 | COC(=O)N1CCC[C@@]2(COCC(=O)N2)[C@@H]1CO[C@H]1CC[C@@H](c2ccccc2)CC1 (single isomer, unassigned) [Example 6] |
| > 10 | O=C1COC[C@]2(CCCN(C(=O)C3CC3)[C@@H]2CO[C@H]2CC[C@@H](c3ccccc3)CC2)N1 (single isomer, unassigned) [Example 8] |
| 0.1 to 1 | O=C1COC[C@@]2(CCCN(C(=O)C3CC3)[C@H]2CO[C@H]2CC[C@@H](c3ccccc3)CC2)N1 (single isomer, unassigned) [Example 9] |
| > 10 | CCNC(=O)N1CCC[C@]2(CCOC(=O)N2)[C@H]1CO[C@H]1CC[C@@H](c2ccccc2)CC1 (single isomer, unassigned) [Example 13] |
| < 0.1 | CCNC(=O)N1CCC[C@@]2(CCOC(=O)N2)[C@@H]1CO[C@H]1CC[C@@H](c2ccccc2)CC1 (single isomer, unassigned) [Example 14] |
| 0.1 to 1 | CCNC(=O)N1CC[C@@]2(COCC(=O)N2)[C@@H]1CO[C@H]1CC[C@@H](c2ccccc2)CC1 (single isomer, unassigned) [Example 16] |
| > 10 | CCNC(=O)N1CC[C@]2(COCC(=O)N2)[C@H]1CO[C@H]1CC[C@@H](c2ccccc2)CC1 (single isomer, unassigned) [Example 17] |
| > 10 | COC(=O)N1CCC[C@]2(CCOC(=O)N2)[C@H]1Cc1cccc(-c2ccccc2)c1 (single isomer, unassigned) [Example 20] |
| > 10 | COC(=O)N1CCC[C@@]2(CCOC(=O)N2)[C@@H]1Cc1cccc(-c2ccccc2)c1 (single isomer, unassigned) [Example 21] |
| > 10 | COC(=O)N1CCC[C@]2(CCOC(=O)N2)[C@@H]1Cc1cccc(-c2ccccc2)c1 (single isomer, unassigned) [Example 22] |
| > 10 | COC(=O)N1CCC[C@@]2(CCOC(=O)N2)[C@H]1Cc1cccc(-c2ccccc2)c1 (single isomer, unassigned) [Example 23] |
| > 10 | CCNC(=O)N1CCC[C@@]2(CNS(=O)(=O)N2)[C@@H]1Cc1cccc(-c2ccccc2)c1 (single isomer, unassigned) [Example 31] |
| > 10 | CCNC(=O)N1CCC[C@]2(CNS(=O)(=O)N2)[C@H]1Cc1cccc(-c2ccccc2)c1 (single isomer, unassigned) [Example 32] |
| > 10 | CCNC(=O)N1CCC[C@]2(CCCC(=O)N2)[C@H]1CO[C@H]1CC[C@@H](c2ccccc2)CC1 (single isomer, unassigned) [Example 34] |
| < 0.1 | CCNC(=O)N1CCC[C@@]2(CCCC(=O)N2)[C@@H]1CO[C@H]1CC[C@@H](c2ccccc2)CC1 (single isomer, unassigned) [Example 35] |
| > 10 | CCNC(=O)N1CCC[C@]2(COC(C)C(=O)N2)[C@H]1CO[C@H]1CC[C@@H](c2ccccc2)CC1 (single isomer, unassigned) [Example 39] |

| EC50 [µM] | SMILES |
| --- | --- |
| < 0.1 | CCNC(=O)N1CCC[C@@]2(COC(C)C(=O)N2)[C@@H]1CO[C@H]1CC[C@@H](c2ccccc2)CC1 (single isomer, unassigned) [Example 40] |
| 1 to 10 | CCNC(=O)N1CCC[C@]2(COC(F)C(=O)N2)[C@H]1CO[C@H]1CC[C@@H](c2ccccc2)CC1 (single isomer, unassigned) [Example 42] |
| < 0.1 | CCNC(=O)N1CCC[C@@]2(COC(F)C(=O)N2)[C@@H]1CO[C@H]1CC[C@@H](c2ccccc2)CC1 (single isomer, unassigned) [Example 43] |
| < 0.1 | CCNC(=O)N1CCC(F)(F)[C@@]2(CCOC(=O)N2)[C@@H]1CO[C@H]1CC[C@@H](c2ccccc2)CC1 (single isomer, unassigned) [Example 45] |
| > 10 | CCNC(=O)N1CCC(F)(F)[C@]2(CCOC(=O)N2)[C@H]1CO[C@H]1CC[C@@H](c2ccccc2)CC1 (single isomer, unassigned) [Example 46] |
| < 0.1 | O=C1N[C@]2(CCCN(C(=O)[C@H]3C[C@@H](F)C3)[C@H]2CO[C@H]2CC[C@@H](c3ccccc3)CC2)CCO1 (single isomer, unassigned) [Example 66] |
| > 10 | O=C1N[C@@]2(CCCN(C(=O)[C@H]3C[C@@H](F)C3)[C@@H]2CO[C@H]2CC[C@@H](c3ccccc3)CC2)CCO1 (single isomer, unassigned) [Example 67] |
| 0.1 to 1 | O=C1COC[C@@]2(CCN(C(=O)[C@H]3C[C@@H](F)C3)[C@H]2Cc2cccc(-c3cc(F)cc(F)c3)c2F)N1 (single isomer, unassigned) [Example 72] |
| > 10 | O=C1COC[C@]2(CCN(C(=O)[C@H]3C[C@@H](F)C3)[C@@H]2Cc2cccc(-c3cc(F)cc(F)c3)c2F)N1 (single isomer, unassigned) [Example 73] |
| 1 to 10 | O=C1N[C@]2(CCN(C(=O)OCC(F)F)[C@H]2Cc2cccc(-c3cc(F)cc(F)c3)c2F)COC1F (single isomer, unassigned) [Example 74] |
| > 10 | O=C1N[C@@]2(CCN(C(=O)OCC(F)F)[C@@H]2Cc2cccc(-c3cc(F)cc(F)c3)c2F)COC1F (single isomer, unassigned) [Example 75] |
| 0.1 to 1 | C[C@@H]1C[C@@]2(COCC(=O)N2)[C@H](Cc2cccc(-c3cc(F)cc(F)c3)c2F)N1C(=O)C1CC1F (single isomer, unassigned) [Example 90] |
| 0.1 to 1 | C[C@@H]1C[C@@]2(COCC(=O)N2)[C@H](Cc2cccc(-c3cc(F)cc(F)c3)c2F)N1C(=O)C1CC1F (single isomer, unassigned) [Example 91] |
| 0.1 to 1 | C[C@@H]1C[C@@]2(COCC(=O)N2)[C@H](Cc2cccc(-c3cc(F)cc(F)c3)c2F)N1C(=O)C1CC1F (single isomer, unassigned) [Example 92] |
| < 0.1 | CCNC(=O)N1CCCC2(CCOC(=O)N2)C1CO[C@H]1CC[C@@H](c2ccccc2)CC1 (stereo partly drawn) [Example 11, (CIS)-N-ethyl-2-oxo-7-({[(CIS)-4-phenylcyclohexyl]oxy}methyl)-3-oxa-1,8-diazaspiro[5.5]undecane-8-carboxamide] |
| 1 to 10 | CCNC(=O)N1CCCC2(CCOC(=O)N2)C1CO[C@H]1CC[C@@H](c2ccccc2)CC1 (stereo partly drawn) [Example 12, (Trans)-N-ethyl-2-oxo-7-({[(CIS)-4-phenylcyclohexyl]oxy}methyl)-3-oxa-1,8-diazaspiro[5.5]undecane-8-carboxamide] |
| > 10 | COC(=O)N1CCCC2(CCOC(=O)N2)C1Cc1cccc(-c2ccccc2)c1 (stereo not shown) [Example 19, Methyl 7-({[1,1′-biphenyl]-3-yl}methyl)-2-oxo-3-oxa-1,8-diazaspiro[5.5]undecane-8-carboxylate] |
| > 10 | CCNC(=O)N1CCC[C@]2(CCOC(=O)N2)[C@H]1Cc1cccc(-c2ccccc2)c1 [Example 26, (6S,7R)-7-({[1,1′-biphenyl]-3-yl}methyl)-N-ethyl-2-oxo-3-oxa-1,8-diazaspiro[5.5]undecane-8-carboxamide] |
| 0.1 to 1 | CCNC(=O)N1CCC[C@@]2(CCOC(=O)N2)[C@@H]1Cc1cccc(-c2ccccc2)c1 [Example 27, (6R,7S)-7-({[1,1′-biphenyl]-3-yl}methyl)-N-ethyl-2-oxo-3-oxa-1,8-diazaspiro[5.5]undecane-8-carboxamide] |
| > 10 | COC(=O)N1CCC[C@@]2(COC(=O)N2)[C@@H]1Cc1cccc(-c2ccccc2)c1 [Example 29, Methyl (5S,6S)-6-({[1,1′-biphenyl]-3-yl}methyl)-2-oxo-3-oxa-1,7-diazaspiro[4.5]decane-7-carboxylate] |
